# Test results taken from patent US20140080787A1, “Method for the Treatment of Neuropathies Associated with Charcot-Marie-Tooth 1A (CMT1A) Disease” (National Institutes of Health, US Dept of Health and Human …, priority 2012, published 2014).
# Experiments:
# PMP22 [1] = test: PMP22 expression in S16 Schwann cells, quantitative rtPCR; assay type: cell-based; conditions: for PMP22 P1 relative level of expression / PMP22 P2 relative level of expression: 24 h, S16 Schwann cells, relative to untreated control, normalized to 18S rRNA, ± S.D.; for RQ (Relative Quantity) PMP22-P1 / RQ (Relative Quantity) PMP22-P2: normalized to beta-actin, untreated = 1.000
# Protocol: To determine if proteasome inhibitors affect endogenous PMP22 expression, quantitative rtPCR was utilized to measure the abundance of PMP22 mRNA transcript in the S16 Schwann cells, which were plated in 6 well plates and treated with each compound at the indicated concentrations. After 24 h., the cells were harvested to purify RNA, 1 μg of which was converted into cDNA. Quantitative rtPCR was performed in either SYBR green-based reactions or Taqman-based customized 384-well micro fluidic arrays using a ViiA7 system or StepOne Plus (Applied Biosystems). Abundance of gene expression was first normalized to beta-actin (ActB, NM_031144.2) or 18 S rRNA, which served as an endogenous loading control across samples, and then determined relative to the untreated sample for each gene using the comparative Ct method described by K. J. Livak and T. D. Schmittgen (Analysis of relative gene expression data using real-time quantitative PCR and the 2^ΔΔCT method. Methods, 2001, 25, 402-408).
# S16 Schwann cells were treated with indicated proteasome inhibitors for 24 h. RNA was prepared and analyzed by quantitative rtPCR using promoter specific primers for PMP22 (labeled P1 and P2). Relative levels of expression are shown relative to untreated control cells. Values are normalized to 18S rRNA. Errors reflect the standard deviation (S.D.) of technical duplicates.
# RQ=Relative Quantity, normalized to beta-actin
# PMP22 [2] = test: PMP22 expression in sciatic nerve of CMT1A rats, quantitative rtPCR; assay type: in vivo, rat; conditions: vehicle = 1.00, ± SEM
# Description: Abundance of gene expression could be determined relative to an untreated sample for each gene using the comparative Ct method as described in the procedure published by K. J. Livak and T. D. Schmittgen (Analysis of relative gene expression data using real-time quantitative PCR and the 2^ΔΔCT method. Methods, 2001, 25, 402-408).
# Changes in the expression of peripheral and central nervous system gene makers (including myelin markers such as PMP22, P0, and Myelin Basic Protein) were followed after proteasome inhibitor administration, and a reduction of PMP22 expression was observed. Changes in PMP22 gene expression were correlated with measures of neurological function that are used to measure the CMT1A neuropathy. These measures of neurological function included measures of motor coordination, nerve conduction velocity, and histology of femoral motor and sensory nerves. Relevant measures of CMT1A function have been outlined by J. C. Noreel and co-authors (Behavioural profiling of a murine Charcot-Marie-Tooth disease type 1A model. Eur. J. Neurosci. 2001, 13, 1625-1634).
# Bortezomib was administered subcutaneously (s.c.) at a dose equivalent to 0.1 mg substance/kg of body weight, using an injection concentration of 2.5 mg of substance/ml. RNA was purified from sciatic nerve at 7 d post-injection. […] Errors indicate the standard error of the mean (SEM).
# Oprozomib (ONX-0912) was administered at the indicated doses by oral gavage and RNA was purified from sciatic nerve at 7 d. […] Errors indicate SEM. Vehicle was 10% EtOH, 10% Tween80, 80% 10 mM citrate buffer pH=3.5 (see; Zhou, H-J. et al., Design and Synthesis of an Orally Bioavailable and Selective Peptide Epoxyketone Proteasome Inhibitor (PR-047). J. Med. Chem., 2009, 52, 3028-3038).
# PMP22 [3] = test: Effect on PMP22 expression in mice after a single s.c. injection; assay type: in vivo; conditions: 10 mg/kg, n = 4, vehicle printed 0.739 ± 0.07
# Description: MLN9708. Anatomical areas of subcutaneous administration could include the right or left thigh, or abdomen. The same anatomical area can be used for repeated administration. However, injections are typically to be rotated between sites (see; Fledrich, R. M. et al., Murine therapeutic models for Charcot-Marie-Tooth (CMT) disease. British Medical Bulletin, 2012, 102, 89-113).
# human PMP22 gene = test: Orthogonal reporter assays (firefly luciferase or β-lactamase coupled to the intronic regulatory element of the human PMP22 gene); assay type: cell-based; conditions: targeted screening, firefly luciferase and β-lactamase reporters
# Description: A cross-validating pair of orthogonal reporter assays, which employ either firefly luciferase or β-lactamase coupled to the intronic regulatory element of the human PMP22 gene, were used to measure CMT1A PMP22 overexpression as a means of identifying transcriptional inhibitors with therapeutic value toward CMT1A. […] A description of assays and methods used to identify compounds has been provided by S-W Jang and co-authors (Identification of drug modulators targeting gene-dosage disease. ACS Chem Biol., 2012, 7, 1205-1213).
# [4] = 10 mg/kg oral gavage, sciatic nerve at 7 d, n = 7
# [5] = 30 mg/kg oral gavage, sciatic nerve at 7 d, n = 7
# [6] = 0.1 mg/kg s.c., sciatic nerve, 7 d post-injection, n = 9
compound,measurement,setting,value
"CC(C)C[C@H](NC(=O)CNC(=O)c1cc(Cl)ccc1Cl)B(O)O [MLN2238, (R)-1-(2-(2,5-dichlorobenzamido)acetamido)-3-methylbutylboronic acid]",PMP22 P1 relative level of expression,PMP22 [1]; 25 nM,1.177 ± 0.42
same,PMP22 P2 relative level of expression,PMP22 [1]; 25 nM,0.837 ± 0.041
same,PMP22 P1 relative level of expression,PMP22 [1]; 50 nM,0.826 ± 0.225
same,PMP22 P2 relative level of expression,PMP22 [1]; 50 nM,0.865 ± 0.141
same,PMP22 P1 relative level of expression,PMP22 [1]; 100 nM,0.005 ± 0.0005
same,PMP22 P2 relative level of expression,PMP22 [1]; 100 nM,0.020 ± 0.005
same,PMP22 P1 relative level of expression,PMP22 [1]; 1 μM,0.003 ± 0.0007
same,PMP22 P2 relative level of expression,PMP22 [1]; 1 μM,0.022 ± 0.0026
same,PMP22 P1 relative level of expression,PMP22 [1]; 10 μM,0.007 ± 0.00003
same,PMP22 P2 relative level of expression,PMP22 [1]; 10 μM,0.018 ± 0.0123
"COC[C@H](NC(=O)c1cnc(C)s1)C(=O)N[C@@H](COC)C(=O)N[C@@H](Cc1ccccc1)C(=O)[C@@]1(C)CO1 [Oprozomib, O-methyl-N-[(2-methyl-5-thiazolyl)carbonyl]-L-seryl-O-methyl-N-[(1S)-2-[(2R)-2-methyl-2-oxiranyl]-2-oxo-1-(phenylmethyl)ethyl]-L-serinamide]",PMP22 P1 relative level,PMP22 [2]; [4],0.46 ± 0.15
same,PMP22 P2 relative level,PMP22 [2]; [4],3.1 ± 0.9
same,Total PMP22 relative level,PMP22 [2]; [4],0.62 ± 0.17
same,PMP22 P1 relative level,PMP22 [2]; [5],0.46 ± 0.1
same,PMP22 P2 relative level,PMP22 [2]; [5],1.87 ± 0.77
same,Total PMP22 relative level,PMP22 [2]; [5],0.61 ± 0.07
"CC(C)C[C@H](NC(=O)CNC(=O)c1cc(Cl)ccc1Cl)B1OC(=O)CC(CC(=O)O)(C(=O)O)O1 (stereo partly drawn) [MLN9708, 4-(carboxymethyl)-2-((R)-1-(2-(2,5-dichlorobenzamido)acetamido)-3-methylbutyl)-6-oxo-1,3,2-dioxaborinane-4-carboxylic acid]",Total PMP22 relative level,PMP22 [3],1.00 ± 0.09
"CC(C)C[C@H](NC(=O)[C@H](CCc1ccccc1)NC(=O)CN1CCOCC1)C(=O)N[C@@H](Cc1ccccc1)C(=O)N[C@@H](CC(C)C)C(=O)[C@@]1(C)CO1 [Carfilzomib, (S)-4-nethyl-N-((S)-1-(((S)-4-methyl-1-((R)-2-methyloxiran-2-yl)-1-oxopentan-2-yl)amino)-1-oxo-3-phenylpropan-2-yl)-2-((S)-2-(2-morpholinoacetamido)-4-phenylbutanamido)pentanamide]",PMP22 P1 relative level of expression,PMP22 [1]; 1 nM,0.003 ± 0.0004
same,PMP22 P2 relative level of expression,PMP22 [1]; 1 nM,0.012 ± 0.004
same,PMP22 P1 relative level of expression,PMP22 [1]; 2.5 nM,0.006 ± 0.0005
same,PMP22 P2 relative level of expression,PMP22 [1]; 2.5 nM,0.027 ± 0.0037
same,PMP22 P1 relative level of expression,PMP22 [1]; 5 nM,0.006 ± 0.0019
same,PMP22 P2 relative level of expression,PMP22 [1]; 5 nM,0.037 ± 0.00026
same,PMP22 P1 relative level of expression,PMP22 [1]; 10 nM,0.014 ± 0.0007
same,PMP22 P2 relative level of expression,PMP22 [1]; 10 nM,0.046 ± 0.0022
same,PMP22 P1 relative level of expression,PMP22 [1]; 100 nM,0.009 ± 0.0055
same,PMP22 P2 relative level of expression,PMP22 [1]; 100 nM,0.027 ± 0.017
same,PMP22 P1 relative level of expression,PMP22 [1]; 1 μM,0.008 ± 0.0024
same,PMP22 P2 relative level of expression,PMP22 [1]; 1 μM,0.036 ± 0.0049
"CC(C)C[C@H](NC(=O)[C@H](Cc1ccccc1)NC(=O)c1cnccn1)B(O)O [Bortezomib, [(1R)-3-methyl-1-({(2S)-3-phenyl-2-[(pyrazin-2-ylcarbonyl)amino]propanoyl}amino)butyl]boronic acid]",RQ (Relative Quantity) PMP22-P1,PMP22 [1]; 10 nM,0.517
same,RQ (Relative Quantity) PMP22-P2,PMP22 [1]; 10 nM,0.809
same,RQ (Relative Quantity) PMP22-P1,PMP22 [1]; 100 nM,0.032
same,RQ (Relative Quantity) PMP22-P2,PMP22 [1]; 100 nM,0.153
same,RQ (Relative Quantity) PMP22-P1,PMP22 [1]; 1 μM,0.041
same,RQ (Relative Quantity) PMP22-P2,PMP22 [1]; 1 μM,0.232
same,RQ (Relative Quantity) PMP22-P1,PMP22 [1]; 10 μM,0.077
same,RQ (Relative Quantity) PMP22-P2,PMP22 [1]; 10 μM,0.285
same,Effect on CMT1A PMP22 overexpression in reporter assays,human PMP22 gene,selectively reducing CMT1A expression
same,PMP22 P1 relative level,PMP22 [2]; [6],0.675 ± 0.17
same,PMP22 P2 relative level,PMP22 [2]; [6],0.4 ± 0.07
same,Total PMP22 relative level,PMP22 [2]; [6],0.3 ± 0.05
